Earlier results in patent US20060094692A1, “Pharmaceutical formulations of camptothecins and process for making same” (BioNumerik Pharmaceuticals, Inc., priority 2004, published 2006).

Details: fraction of the potency of the lactone form

SMILES: CC[C@@](O)(C(=O)O)c1cc2n(c(=O)c1CO)Cc1cc3ccccc3nc1-2 [carboxylate form of CPT]
- antitumor potency relative to the lactone form of CPT: approximately one-tenth or less
